From PMC6921279 (Frontiers in Endocrinology, 2019)

Key:
β2-adrenergic receptor = system: β2-adrenergic receptor; parameters: method as in PMID 15489914, PMID 11278940; conditions: A431 cells; cited from earlier work
Source text: Moreover, there is evidence that Tyr phosphorylation of GPCRs plays a role in mediating GPCR-Src interactions ([43]). […] This residue lies within a canonical Src SH2 binding domain, and it is proposed that Src directly binds the Tyr-phosphorylated β2-AR.

[1] = system: MEK1/2-mediated phosphorylation of ERK1/2; parameters: method as in PMID 16484629, PMID 10098484, PMID 14670995, PMID 11117536, PMID 12970163; conditions: CRF1R and CRF2R signaling, various cell lines; cited from earlier work
EGFR Tyr845 = experiment: CRF-induced EGFR phosphorylation at Tyr845 in COS-7 cells expressing HA-CRF1R; type: cell-based; conditions: 10 μM PP2, 30 min pretreatment; 100 nM CRF, 5 min
Description: (§1) COS-7 cells (from the American Type Culture Collection) were cultured at 37°C in a humidified atmosphere of 95% air, 5% CO2, in DMEM supplemented with 10% FBS, 100 μg/ml streptomycin, and 100 units/ml penicillin (COS-7 growth medium). Transient transfections were performed using LipofectAMINE (Life Technologies: Gaithersburg, MD) as described previously ([27]). Cells were seeded at 8 × 10^5 cells/10-cm dish in COS-7 medium and cultured for 3 days before transfection. COS-7 cells were transfected in 5 ml/dish OptiMEM containing 10 μg/ml LipofectAMINE with empty vector, pcDNA3 encoding the HA-CRF1R or the HA-CRF1R-Δ386 mutant. […]
(§2) The protocols for measuring total and phosphorylated ERK1/2, c-Src, PYK2, Akt, and EGFR have been previously published ([28], [29]). […] The labeled bands were quantified using the Quantity One 4.6.3 software program (Bio-Rad).
(§3) Figure 6 CRF mediates EGFR phosphorylation at Tyr^845 and activation of PYK2. […] Total cell lysates were separated by SDS-PAGE and analyzed by immunoblotting with anti-p-EGFR Tyr^845 (A,B) or anti-p-PYK2 Tyr^402 (E), as described in Materials and Methods. EGFR and ERK1/2 phosphorylation were quantitated by densitometry, and mean values were plotted from three to five independent experiments. […] Src and EGFR were quantitated by densitometry, and mean values were plotted from three independent experiments. […]

[2] = system: CRF1R-mediated ERK1/2 phosphorylation; experiment: Modulation of CRF-stimulated ERK1/2 phosphorylation in COS-7 cells expressing HA-CRF1R; type: cell-based; conditions: 100 nM CRF, 5 min
Description: (§4) Plasmid pRK5 encoding the carboxyl terminus of βARK that contains its βγ-binding domain (ct-βARK) was kindly provided by Dr. W. Koch (Center for Translational Medicine, Temple University, Philadelphia, PA), which is a scavenger for G protein βγ subunits ([25]). […] Plasmid pUSEamp encoding dominant-negative Akt-K179M (dn-Akt) was from Upstate Biotechnology (Lake Placid, NY).
(§5) COS-7 cells (from the American Type Culture Collection) were cultured at 37°C in a humidified atmosphere of 95% air, 5% CO2, in DMEM supplemented with 10% FBS, 100 μg/ml streptomycin, and 100 units/ml penicillin (COS-7 growth medium). Transient transfections were performed using LipofectAMINE (Life Technologies: Gaithersburg, MD) as described previously ([27]). Cells were seeded at 8 × 10^5 cells/10-cm dish in COS-7 medium and cultured for 3 days before transfection. COS-7 cells were transfected in 5 ml/dish OptiMEM containing 10 μg/ml LipofectAMINE with empty vector, pcDNA3 encoding the HA-CRF1R or the HA-CRF1R-Δ386 mutant. […] After replacing the transfection medium with fresh growth medium, transfected COS-7 cells were cultured for 1 day. Subsequently, cells were re-seeded in 6-well plates and cultured for an additional day prior to the experiment.
(§6) The protocols for measuring total and phosphorylated ERK1/2, c-Src, PYK2, Akt, and EGFR have been previously published ([28], [29]). After cells were cultured to 60–70% confluence, they were serum-deprived for 24 h. On the day of the experiment, cells were treated with the indicated ligands and inhibitors. […] After treatment, cells were placed on ice, the media was aspirated, and the cells were washed twice with ice-cold PBS and lysed in 100 μl of Laemmli sample buffer 1X. The lysates were briefly sonicated, heated at 95°C for 5 min, and centrifuged for 5 min at 14,000 rpm. Resulting supernatants were loaded in separate lanes of a 10% SDS-PAGE gels and electrophoresed. Next, Western transfer on to PDVF membranes was completed. The Western blots were then probed with specific antibodies targeting phosphorylated and non-phosphorylated forms of ERK1/2, c-Src, PYK2, Akt, and EGFR for primary immunodetection. After blots were probed with horseradish peroxidase-conjugated secondary antibody, protein bands were visualized with enhanced chemiluminescence ECL reagent (Amersham Pharmacia Biotech, Piscataway, NJ or Pierce Biotechnology, Rockford, IL) and scanned using the GS-800 Calibrated Imaging Densitometer (Bio-Rad). The labeled bands were quantified using the Quantity One 4.6.3 software program (Bio-Rad).
Total cell lysates were separated by SDS-PAGE and analyzed by immunoblotting with anti-p-ERK1/2 Thr^202/Tyr^204, as described in Materials and Methods. ERK1/2 phosphorylation was quantitated by densitometry, and mean values were plotted from five independent experiments.
Total cell lysates were separated by SDS-PAGE and analyzed by immunoblotting with anti-p-ERK1/2 Thr^202/Tyr^204 (A–D) or anti-p-EGFR Tyr^1068 (E), as described in Materials and Methods. ERK1/2 and EGFR phosphorylation were quantitated by densitometry, and mean values were plotted from three to five independent experiments.
Total cell lysates were separated by SDS-PAGE and analyzed by immunoblotting with anti-p-ERK1/2 Thr^202/Tyr^204, as described in Materials and Methods. ERK1/2 phosphorylation was quantitated by densitometry, and mean values were plotted from three to five independent experiments.

PYK2 = experiment: CRF-induced PYK2 phosphorylation at Tyr402 in COS-7 cells expressing HA-CRF1R; type: cell-based; conditions: PP2 (discussion)
Description: as §1, §2, §3

Src = experiment: CRF-induced Src phosphorylation at Tyr416 in COS-7 cells expressing HA-CRF1R; type: cell-based; conditions: 10 μM PP2, 30 min pretreatment; 100 nM CRF, 5 min
Description: COS-7 cells (from the American Type Culture Collection) were cultured at 37°C in a humidified atmosphere of 95% air, 5% CO2, in DMEM supplemented with 10% FBS, 100 μg/ml streptomycin, and 100 units/ml penicillin (COS-7 growth medium). Transient transfections were performed using LipofectAMINE (Life Technologies: Gaithersburg, MD) as described previously ([27]). Cells were seeded at 8 × 10^5 cells/10-cm dish in COS-7 medium and cultured for 3 days before transfection. COS-7 cells were transfected in 5 ml/dish OptiMEM containing 10 μg/ml LipofectAMINE with empty vector, pcDNA3 encoding the HA-CRF1R or the HA-CRF1R-Δ386 mutant. […] After replacing the transfection medium with fresh growth medium, transfected COS-7 cells were cultured for 1 day. […]
as §2
Figure 5 Role of Src tyrosine kinase in CRF-stimulated ERK1/2 phosphorylation. […] Total cell lysates were separated by SDS-PAGE and analyzed by immunoblotting with anti-p-Src Tyr^416 (A,B) or anti-p-ERK1/2 Thr^202/Tyr^204 (C–E), as described in Materials and Methods. Src, PYK2, and ERK1/2 phosphorylation were quantitated by densitometry, and mean values were plotted from three to five independent experiments. […]

[3] = system: CRF1R-mediated Akt phosphorylation; experiment: CRF-induced Akt phosphorylation at Ser473 in COS-7 cells expressing HA-CRF1R; type: cell-based, human; conditions: PP2 10 μM, 30 min pretreatment; 100 nM CRF, 5 min
Description: as §4, §5
as §6, with “After blots were probed with horseradish peroxidase-conjugated secondary antibody, protein bands were visualized with enhanced chemiluminescence ECL reagent (Amersham Pharmacia Biotech, Piscataway, NJ or Pierce Biotechnology, Rockford, IL) and scanned using the GS-800 Calibrated Imaging Densitometer (Bio-Rad).” left out
Figure 7 CRF mediates Akt activation. […] Total cell lysates were separated by SDS-PAGE and analyzed by immunoblotting with anti-p-Akt Ser^473, as described in Materials and Methods. Akt phosphorylation was quantitated by densitometry, and mean values were plotted from three to five independent experiments. […]

rat cardiomyocytes = system: rat cardiomyocytes; parameters: method as in PMID 12970163; conditions: CRF2R activation by Ucn2 and Ucn3; cited from earlier work

CC(C)NCC(O)c1ccc(O)c(O)c1 (stereo not drawn) [isoproterenol]
phosphorylation of β2-AR (β2-adrenergic receptor): results in phosphorylation of the receptor on Tyr^305

COc1cccc(-c2cc(=O)c3ccccc3o2)c1N [PD98059]
effect on ERK1/2 activation [1]: inhibiting ERK1/2 activation

CC(C)(C)n1nc(-c2ccc(Cl)cc2)c2c(N)ncnc21 [PP2]
effect on CRF-induced EGFR Tyr845 phosphorylation (EGFR Tyr845): blocked
effect on CRF-stimulated ERK1/2 phosphorylation ([2]; 10 μM PP2, 30 min pretreatment): abolished CRF-stimulated ERK1/2 phosphorylation
IC50 ([2]; PP2 0–20 μM, 30 min pretreatment, read-out: IC50, inhibition of CRF-stimulated ERK1/2 phosphorylation): 2 µM
effect on CRF-stimulated activation of Src, PYK2, the EGFR, and ERK1/2 (PYK2): markedly reduced or abolished the CRF-stimulated activation of Src, PYK2, the EGFR, and ERK1/2
effect on CRF-induced Src phosphorylation (Src): CRF-induced Src phosphorylation was prevented
effect on CRF-induced Akt activation [3]: completely inhibited

CCCC[C@@H](C)/C=C(C)/C=C(\C)C(=O)NC1=C[C@@](O)(/C=C/C=C/C=C/C(=O)NC2=C(O)CCC2=O)[C@@H]2O[C@@H]2C1=O [manumycin A]
effect on ERK1/2 phosphorylation (rat cardiomyocytes): abolish ERK1/2 phosphorylation
